Results taken from publication PMC9225785, “Design, synthesis, and biological evaluation of a novel series of 2-(2,6-dioxopiperidin-3-yl)isoquinoline-1,3(2H,4H)-dione derivatives as cereblon modulators” (Journal of Enzyme Inhibition and Medicinal Chemistry, 2022).
Like-named read-outs stand apart in the source and are kept apart here.

Experiments:
U2932 cells = experiment: CCK8 antiproliferative assay, U2932; conditions: Homo sapiens, U2932, 72 h, read-out: IC50 (μM ± SD) U2932
NCI-H929 cells [1] = experiment: CCK8 antiproliferative assay, NCI-H929; conditions: Homo sapiens, NCI-H929, 72 h, read-out: IC50 (μM ± SD) NCI-H929
PBMC toxicity by CCK8 = format: cell-based, human; conditions: human, PBMCs isolated from healthy donors, CCK-8, 20.0 µM, relative to control cells; read-out: PBMC cell viability (%)
Method: (§1) And same time, the toxicity of the compounds on the normal human cell line PBMC was also tested by CCK8.
(§2) The NCI-H929 cells were cultured in RPMI-1640 media supplemented with 10% FBS, 100 U/mL penicillin–100 µg/mL streptomycin, and 0.05 mM 2-mercaptoethanol. The U2932 cells were cultured in RPMI-1640 media supplemented with 10% FBS and 100 U/mL penicillin–100 µg/mL streptomycin. The PBMCs were isolated from healthy donors.
(§3) For the cell proliferation experiments, 1.0 × 10^5 cells were first seeded in the 96-well culture plate and incubated overnight. Compounds tested were serially diluted in the corresponding media and then added to the well of 96-well plate in a final volume of 100 µL and then the cells were incubated for 72 h at 37 °C. Finally, 10 µL of CCK-8 was added to each well for 1–4 h, and the absorbance values were read at 450 nm in a Microplate Reader (ELx-800, BioTek Instruments, Winooski, VT). The IC50 value for each compound was calculated at the basis of the number of viable cells using GraphPad Prism 5.0 software (San Diego, CA).

TNF-α = TNF-α ELISA assay in LPS stimulated PBMC; format: cell-based, human; conditions: read-out: IC50 (μM ± SD) TNF-α
Method: Previous studies have reported IMiDs stimulate immunomodulatory activity main through the TNF-α inhibition[9]^,[10]. In this test, the effect of the synthesised compounds on TNF-α in LPS stimulated human peripheral blood mononuclear cell (PBMC) was evaluated (Table 1). The SAR of TNF-α inhibition was similar to the antiproliferative activity. […]
PBMC (4 × 10^5 cells) were incubated in the 96-well culture plate and stimulated by 2 µg/mL LPS. The level of TNF-α was checked by standard ELISA (R&D Systems, Minneapolis, MN). Analysis was performed by following the manufacture’s procedure for each ELISA kit. The test samples were assessed in triplicate and absorbance was taken on a Microplate Reader (ELx-800, BioTek Instruments, Winooski, VT) at 450 nm. The IC50 value for each compound was calculated by comparison with standard curves with purified recombinant TNF-α using GraphPad Prism 5.0 software (San Diego, CA).

NCI-H929 cells [2] = experiment: Annexin V-FITC/PI apoptosis assay; format: cell-based; conditions: for B1: necrotic cells / B2: late apoptosis / B3: live cells / B4: early apoptosis: 72 h; for apoptotic events: 72 h (early + late apoptosis)
Method: The IMiDs were reported to induce apoptosis through activation of caspase 8 in MM cells. Accordingly, the ability of the selected compound 10a to induce apoptosis in NCI-H929 cells was investigated using annexin V fluorescein isothiocyanate (FITC)/propidium iodide (PI) staining assay.
(§4) Flow cytometry was used to analyse effects of the compounds tested on cell cycle (PI staining) and apoptosis (Annexin V-FITC and PI staining). Stained cells were analysed on a Flow Cytometer (BD Biosciences, Franklin Lakes, NJ), and the data were analysed using the Cell Quest software.

PBMC = PBMC toxicity by CCK8; format: cell-based, human
Method: as §1, §2, §3

[3] = target: T1, CRBN (His-tagged CRBN-DDB1 complex) (Homo sapiens, UniProt Q96SW2); experiment: TR-FRET CRBN binding assay (displacement of Cy5-labeled thalidomide)
T1 construct: purchased Abcam ab235611
T1 sequence (Q96SW2 whole entry): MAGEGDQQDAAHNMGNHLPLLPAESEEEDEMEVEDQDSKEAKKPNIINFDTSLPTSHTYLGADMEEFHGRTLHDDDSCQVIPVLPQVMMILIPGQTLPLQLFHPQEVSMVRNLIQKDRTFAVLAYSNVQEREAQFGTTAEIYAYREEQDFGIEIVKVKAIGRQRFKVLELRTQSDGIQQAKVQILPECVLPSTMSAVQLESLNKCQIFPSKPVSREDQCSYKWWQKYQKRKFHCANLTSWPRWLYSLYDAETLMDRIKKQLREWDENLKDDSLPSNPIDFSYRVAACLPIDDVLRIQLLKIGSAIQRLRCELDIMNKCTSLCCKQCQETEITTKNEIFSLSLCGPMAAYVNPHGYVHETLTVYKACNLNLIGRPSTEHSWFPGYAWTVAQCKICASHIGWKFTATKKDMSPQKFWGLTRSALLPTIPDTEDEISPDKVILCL
T1 sequence (Q16531 whole entry partner): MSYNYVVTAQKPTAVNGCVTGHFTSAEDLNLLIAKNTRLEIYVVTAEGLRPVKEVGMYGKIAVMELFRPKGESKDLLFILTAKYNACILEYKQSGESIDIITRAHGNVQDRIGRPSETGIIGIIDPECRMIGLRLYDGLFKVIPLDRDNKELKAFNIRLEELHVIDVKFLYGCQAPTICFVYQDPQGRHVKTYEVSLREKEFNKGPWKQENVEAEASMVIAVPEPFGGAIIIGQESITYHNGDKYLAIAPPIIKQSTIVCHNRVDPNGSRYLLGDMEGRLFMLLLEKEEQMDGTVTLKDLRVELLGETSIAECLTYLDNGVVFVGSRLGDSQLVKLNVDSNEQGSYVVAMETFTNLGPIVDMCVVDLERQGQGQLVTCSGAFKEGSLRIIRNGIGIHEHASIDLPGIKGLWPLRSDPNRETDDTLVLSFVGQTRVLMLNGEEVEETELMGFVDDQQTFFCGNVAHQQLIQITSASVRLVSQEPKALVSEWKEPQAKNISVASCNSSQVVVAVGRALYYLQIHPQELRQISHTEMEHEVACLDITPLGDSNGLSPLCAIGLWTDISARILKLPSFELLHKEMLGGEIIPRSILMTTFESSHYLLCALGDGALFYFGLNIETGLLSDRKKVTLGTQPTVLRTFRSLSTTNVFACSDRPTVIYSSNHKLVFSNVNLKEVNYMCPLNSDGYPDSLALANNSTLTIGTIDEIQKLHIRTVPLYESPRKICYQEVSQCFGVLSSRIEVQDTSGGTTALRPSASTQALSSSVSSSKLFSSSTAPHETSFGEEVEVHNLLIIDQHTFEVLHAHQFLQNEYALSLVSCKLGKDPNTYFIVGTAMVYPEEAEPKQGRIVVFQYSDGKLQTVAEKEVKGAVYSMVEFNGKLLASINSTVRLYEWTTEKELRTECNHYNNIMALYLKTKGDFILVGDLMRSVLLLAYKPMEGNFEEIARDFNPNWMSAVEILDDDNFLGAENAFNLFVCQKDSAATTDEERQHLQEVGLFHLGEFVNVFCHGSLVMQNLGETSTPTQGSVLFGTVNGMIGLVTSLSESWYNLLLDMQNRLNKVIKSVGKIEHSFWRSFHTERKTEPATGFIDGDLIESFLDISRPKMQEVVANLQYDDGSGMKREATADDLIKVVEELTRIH
Method: His-tagged CRBN-DDB1 complex (Abcam, Cambridge, UK, catalogue no. ab235611) 60 nM was mixed with Eu-anti-His Tag antibody 3 nM (Thermo Fisher, Waltham, MA, catalogue no. PV5596) in a final buffer containing 20 mM HEPES pH 7.0, 150 mM NaCl, and 0.005% Tween-20. The solution was then mixed with Cy5-labeled thalidomide 10 nM and various concentrations of compounds, and then was incubated at room temperature for 1 h. FRET signals were measured on an EnVision plate reader by exciting at 340 nm and recording emission at both 615 nm (no FRET control) and 665 nm (FRET signals) with a 60 µs delay. […] Quantitative loss of FRET efficiency as a function of compound concentrations was fitted by GraphPad Prism 5.0 (San Diego, CA) and calculated the IC50.

IKZF3 = target: T2, IKZF3 (Homo sapiens, UniProt Q96SW2+Q9UKT9); experiment: Immunoblot analysis of IKZF3 degradation in NCI-H929 cells; format: cell-based; conditions: for IKZF3 degradation: 72 h, immunoblot
T2 construct: endogenous in cells; host or cells: NCI-H929
T2 sequence (Q9UKT9 whole entry): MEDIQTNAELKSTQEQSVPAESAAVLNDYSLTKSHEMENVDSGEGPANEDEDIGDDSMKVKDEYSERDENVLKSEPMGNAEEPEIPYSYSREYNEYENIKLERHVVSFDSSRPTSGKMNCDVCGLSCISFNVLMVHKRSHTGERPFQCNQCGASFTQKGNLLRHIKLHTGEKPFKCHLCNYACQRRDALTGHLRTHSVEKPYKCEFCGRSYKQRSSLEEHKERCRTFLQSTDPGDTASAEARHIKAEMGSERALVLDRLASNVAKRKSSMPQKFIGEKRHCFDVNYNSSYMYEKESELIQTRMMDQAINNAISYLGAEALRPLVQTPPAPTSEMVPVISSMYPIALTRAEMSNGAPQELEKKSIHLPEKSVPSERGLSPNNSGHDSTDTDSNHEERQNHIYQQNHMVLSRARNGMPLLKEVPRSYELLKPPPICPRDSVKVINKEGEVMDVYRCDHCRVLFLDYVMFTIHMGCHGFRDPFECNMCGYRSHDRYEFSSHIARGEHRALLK
T2 sequence (Q96SW2 whole entry): as the sequence (Q96SW2 whole entry) above
T2 sequence (Q16531 whole entry partner): as the sequence (Q16531 whole entry partner) above
Method: (§5) Subsequent proteasome degradation of these transcription factors kills MM cells. Accordingly, we used the immunoblot assay to measure the IKZF1 and IKZF3 proteins degradation in the current study.
(§6) For immunoblot analysis, NCI-H929 cells were treated with the tested compounds at the indicated concentrations for various times, collected, and lysed in RIPA buffer in the presence of protease inhibitors on ice for 30 min. The protein from each sample was quantitated using a BCA protein assay kit, and was separated by SDS-PAGE and then transferred onto the PVDF membrane. The membranes were probed with specific primary antibodies at 4 °C overnight, followed by incubation with IRDye®680 goat anti-mouse secondary antibodies. The signals were acquired using the Odyssey Infrared Imaging System (LI-COR, Lincoln, NE).

NCI-H929 cells [4] = experiment: Cell cycle analysis (PI staining, flow cytometry); format: cell-based; conditions: 48 h; for cell cycle arrest: NCI-H929, 0.5-5.0 µM
Method: The NCI-H929 cells were treated with each of the compounds at 0, 0.5, 1.0, and 5.0 µM for 48 h. Following this treatment, the PI-stained cells were analysed and the results are outlined in Figure 5.
as §4

IKZF1 = target: T3, IKZF1 (Homo sapiens, UniProt Q13422+Q96SW2); experiment: Immunoblot analysis of IKZF1 degradation in NCI-H929 cells; format: cell-based; conditions: for IKZF1 degradation: 72 h, immunoblot
T3 construct: endogenous in cells; host or cells: NCI-H929
T3 sequence (Q13422 whole entry): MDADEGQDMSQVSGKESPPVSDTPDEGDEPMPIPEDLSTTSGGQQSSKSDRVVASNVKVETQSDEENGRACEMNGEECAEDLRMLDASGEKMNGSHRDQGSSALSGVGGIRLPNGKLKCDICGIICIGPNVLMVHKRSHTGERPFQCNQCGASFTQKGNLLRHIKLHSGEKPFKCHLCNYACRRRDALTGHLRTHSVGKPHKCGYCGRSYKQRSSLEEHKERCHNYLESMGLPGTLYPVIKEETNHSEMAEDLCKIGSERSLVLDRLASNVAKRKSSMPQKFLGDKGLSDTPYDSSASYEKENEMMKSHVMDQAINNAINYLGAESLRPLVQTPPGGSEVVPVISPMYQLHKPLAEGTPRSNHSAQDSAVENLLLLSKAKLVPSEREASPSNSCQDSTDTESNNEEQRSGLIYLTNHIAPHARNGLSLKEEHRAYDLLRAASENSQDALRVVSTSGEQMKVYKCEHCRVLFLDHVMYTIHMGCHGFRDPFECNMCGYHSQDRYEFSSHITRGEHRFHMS
T3 sequence (Q96SW2 whole entry): as the sequence (Q96SW2 whole entry) above
T3 sequence (Q16531 whole entry partner): as the sequence (Q16531 whole entry partner) above
Method: as §5, §6

[5] = TNF-α level in LPS stimulated human PBMC, ELISA
[6] = NCI-H929, indicated concentrations
[7] = NCI-H929, 100 nM bortezomib in combination with compound 10a (10 µM)

| SMILES | IC50 (U2932 cells) [µM] | IC50 (NCI-H929 cells [1]) [µM] | viability at 72 h, 20 µM (PBMC toxicity by CCK8) [%] | IC50 (TNF-α; [5]) [µM] | other results |
| --- | --- | --- | --- | --- | --- |
| O=C1CCC(N2C(=O)Cc3ccccc3C2=O)C(=O)N1 (stereo not shown) [Compound 3a, 2-(2,6-dioxopiperidin-3-yl)isoquinoline-1,3(2H,4H)-dione] | > 50 | 32.2 ± 1.42 | 99 | > 50 | – |
| COc1ccc2c(c1)C(=O)N(C1CCC(=O)NC1=O)C(=O)C2 (stereo not shown) [Compound 3b, 2-(2,6-Dioxopiperidin-3-yl)-7-methoxyisoquinoline-1,3(2H,4H)-dione] | 36.4 ± 1.22 | 28.2 ± 0.92 | 98 | 43.8 ± 1.88 | – |
| COc1ccc2c(c1)C(=O)N(C1CCC(=O)NC1=O)C(=O)C2(C)C (stereo not shown) [Compound 3c, 2-(2,6-Dioxopiperidin-3-yl)-7-methoxy-4,4-dimethylisoquinoline-1,3(2H,4H)-dione] | > 50 | > 50 | 100 | > 50 | – |
| O=C1CCC(N2C(=O)Cc3cccc([N+](=O)[O-])c3C2=O)C(=O)N1 (stereo not shown) [Compound 9a, 2-(2,6-dioxopiperidin-3-yl)-8-nitroisoquinoline-1,3(2H,4H)-dione] | 12.2 ± 0.58 | 9.26 ± 0.56 | 94 | 5.48 ± 1.04 | – |
| Nc1cccc2c1C(=O)N(C1CCC(=O)NC1=O)C(=O)C2 (stereo not shown) [Compound 10a, 8-amino-2-(2,6-dioxopiperidin-3-yl)isoquinoline-1,3(2H,4H)-dione] | 5.86 ± 0.12 | 2.25 ± 0.09 | 94 | 0.76 ± 0.08 | B1: necrotic cells (NCI-H929 cells [2]; NCI-H929, 1 μM): 0.1%; B2: late apoptosis (NCI-H929 cells [2]; NCI-H929, 1 μM): 15.6%; B3: live cells (NCI-H929 cells [2]; NCI-H929, 1 μM): 70.4%; B4: early apoptosis (NCI-H929 cells [2]; NCI-H929, 1 μM): 13.9%; apoptotic events (NCI-H929 cells [2]; NCI-H929, 1 µM): 29.5%; B1: necrotic cells (NCI-H929 cells [2]; NCI-H929, 5 μM): 0.2%; B2: late apoptosis (NCI-H929 cells [2]; NCI-H929, 5 μM): 21.3%; B3: live cells (NCI-H929 cells [2]; NCI-H929, 5 μM): 65.1%; B4: early apoptosis (NCI-H929 cells [2]; NCI-H929, 5 μM): 13.3%; apoptotic events (NCI-H929 cells [2]; NCI-H929, 5 µM): 34.6%; toxicity to normal human cell line PBMC (PBMC; CCK8, 20 µM): nearly no toxicity; PBMC cell viability (%) (PBMC; CCK-8, 20.0 µM, relative to control cells, 20 µM): 99%; IC50 [3]: 4.83 µM; IKZF3 degradation (IKZF3; NCI-H929, 10 µM): completely degrade; IKZF3 degradation (IKZF3; [6]): induced the degradation; cells in G0/G1 cell cycle (NCI-H929 cells [4]; NCI-H929, 5.0 µM): 42.9%; cell cycle arrest (NCI-H929 cells [4]): induce G0/G1 cell cycle arrest; IKZF1 degradation (IKZF1; NCI-H929, 10 µM): completely degrade; IKZF1 degradation (IKZF1; [6]): induced the degradation |
| Nc1ccc2c(c1)C(=O)N(C1CCC(=O)NC1=O)C(=O)C2 (stereo not shown) [Compound 10b, 7-Amino-2-(2,6-dioxopiperidin-3-yl)isoquinoline-1,3(2H,4H)-dione] | 20.6 ± 0.82 | 16.3 ± 0.56 | 98 | 21.3 ± 1.26 | – |
| Nc1ccc2c(c1)CC(=O)N(C1CCC(=O)NC1=O)C2=O (stereo not shown) [Compound 10c, 6-Amino-2–(2,6-dioxopiperidin-3-yl)isoquinoline-1,3(2H,4H)-dione] | 26.3 ± 0.76 | 18.7 ± 0.83 | 100 | 38.5 ± 1.38 | – |
| Nc1cccc2c1CC(=O)N(C1CCC(=O)NC1=O)C2=O (stereo not shown) [Compound 10d, 5-Amino-2–(2,6-dioxopiperidin-3-yl)isoquinoline-1,3(2H,4H)-dione] | > 50 | > 50 | 99 | > 50 | – |
| CC1(C)C(=O)N(C2CCC(=O)NC2=O)C(=O)c2c(N)cccc21 (stereo not shown) [Compound 12a, 8-Amino-2–(2,6-dioxopiperidin-3-yl)-4,4-dimethylisoquinoline-1,3(2H,4H)-dione] | > 50 | > 50 | 100 | > 50 | – |
| Nc1cccc2c1C(=O)N(C1CCC(=O)NC1=O)C(=O)C21CC1 (stereo not shown) [Compound 12b, 8′-Amino-2′-(2,6-dioxopiperidin-3-yl)-1′H-spiro[cyclopropane-1,4′-isoquinoline]-1′,3′(2′H)-dione] | > 50 | > 50 | 100 | > 50 | – |
| Nc1cccc2c1CN(C1CCC(=O)NC1=O)C2=O (stereo not shown) [Lenalidomide, reference compound] | 3.24 ± 0.11 | 1.12 ± 0.06 | 86 | – | B1: necrotic cells (NCI-H929 cells [2]; NCI-H929, 1 μM): 0.2%; B2: late apoptosis (NCI-H929 cells [2]; NCI-H929, 1 μM): 18.1%; B3: live cells (NCI-H929 cells [2]; NCI-H929, 1 μM): 68.6%; B4: early apoptosis (NCI-H929 cells [2]; NCI-H929, 1 μM): 13.1%; apoptotic events (NCI-H929 cells [2]; NCI-H929, 1 µM): 31.2%; B1: necrotic cells (NCI-H929 cells [2]; NCI-H929, 5 μM): 0.1%; B2: late apoptosis (NCI-H929 cells [2]; NCI-H929, 5 μM): 20.8%; B3: live cells (NCI-H929 cells [2]; NCI-H929, 5 μM): 56.0%; B4: early apoptosis (NCI-H929 cells [2]; NCI-H929, 5 μM): 23.1%; apoptotic events (NCI-H929 cells [2]; NCI-H929, 5 µM): 43.9%; cell cycle arrest (NCI-H929 cells [4]): induce G0/G1 cell cycle arrest; IC50 (TNF-α; Homo sapiens, PBMC): 0.13 ± 0.02 µM |
| CC(C)C[C@H](NC(=O)[C@H](Cc1ccccc1)NC(=O)c1cnccn1)B(O)O [bortezomib, reference compound] | – | – | – | – | effect on IKZF3 degradation induced by compound 10a (IKZF3; [7]): can block the degradation; effect on IKZF1 degradation induced by compound 10a (IKZF1; [7]): can block the degradation |
